Values after ≈ are worked out from the molar mass of the structure shown.
C=CC=O
solubility (25 °C): 3780 mM (≈ 212 mg/mL)

Nc1ccc(N)cc1
solubility (23 °C): 342 mM (≈ 37 mg/mL)

CN1C2CCC1CC(OC(=O)c1ccccc1)C2 (stereo not drawn)
solubility (25 °C): 6.93 mM (≈ 1.7 mg/mL)

O=C1C[C@@H]2OCC=C3CN4CC[C@]56c7ccccc7N1[C@H]5[C@H]2[C@H]3C[C@H]46
solubility (25 °C): 0.478 mM (≈ 0.16 mg/mL)

O=C1CC2CC[C@H]1C2
solubility (20 °C): 17.5 mM (≈ 1.93 mg/mL)

O=[N+]([O-])OCC(CO[N+](=O)[O-])O[N+](=O)[O-]
solubility (20 °C): 6.08 mM (≈ 1.38 mg/mL)

O=C1c2c(O)cccc2[C@H]([C@@H]2O[C@H](CO)[C@@H](O)[C@H](O)[C@H]2O)c2cc(CO)cc(O)c21
solubility (20 °C): 19.8 mM (≈ 8.3 mg/mL)

CC[C@H]1C[N@@]2CC[C@H]1C[C@H]2[C@H](O)c1ccnc2ccc(OC)cc12
solubility (25 °C): 0.888 mM (≈ 0.29 mg/mL)

O=C(O)c1ccccc1Cl
solubility (25 °C): 13.3 mM (≈ 2.09 mg/mL)

O=Cc1ccccc1[N+](=O)[O-]
solubility (25 °C): 15.4 mM (≈ 2.32 mg/mL)

O=C(O)c1cccc(Cl)c1
solubility (25 °C): 2.87 mM (≈ 0.45 mg/mL)

O=C1c2cccc(S(=O)(=O)O)c2C(=O)c2cccc(S(=O)(=O)O)c21
solubility (25 °C): 1810 mM (≈ 666 mg/mL)

CCN1C[C@]2(COC)[C@H](O)C[C@H](OC)[C@]34C1[C@H]([C@H](OC)[C@H]23)[C@]1(OC(C)=O)[C@H]2[C@@H](OC(=O)c3ccccc3)[C@](O)(C[C@H]24)[C@@H](OC)[C@@H]1O
solubility (25 °C): 0.48 mM (≈ 0.31 mg/mL)

CCN(CC)C(=O)CCC(=O)O
solubility (25 °C): 161 mM (≈ 27.9 mg/mL)

O=C1NS(=O)(=O)c2ccccc21
solubility (25 °C): 21.8 mM (≈ 4 mg/mL)

NC(N)=S
solubility (25 °C): 1870 mM (≈ 142 mg/mL)

Cc1cc(O)c2c(O)c3c(O)cccc3cc2c1
solubility (25 °C): 0.874 mM (≈ 0.21 mg/mL)

O=C1c2cccc(S(=O)(=O)O)c2C(=O)c2c1cccc2S(=O)(=O)O
solubility (25 °C): 18100 mM (≈ 6660 mg/mL)

Nc1cccc([N+](=O)[O-])c1
solubility (24 °C): 8.69 mM (≈ 1.2 mg/mL)

CCCCCCCCCCC(C(=O)O)C(=O)O
solubility (25 °C): 0.102 mM (≈ 0.025 mg/mL)

NC(=O)c1ccccc1
solubility (25 °C): 111 mM (≈ 13.5 mg/mL)

CC(=O)Oc1ccc2c3c1O[C@H]1[C@@H](OC(C)=O)C=C[C@H]4[C@@H](C2)N(C)CC[C@@]341
solubility (25 °C): 1.61 mM (≈ 0.595 mg/mL)

O=Cc1cccc([N+](=O)[O-])c1
solubility (25 °C): 10.8 mM (≈ 1.63 mg/mL)
